Where a name gives a salt, the structure may show the parent alone. Read-outs that look alike come from different tables or passages of the source.
Tests used:
Assay type in all cases: in vivo
[1] = test system: CTX-1; assay: Plasma CTX-1 (bone resorption marker) in healthy cats; settings: for pre-dose plasma CTX-1 during repeated administration: once-a-day oral 2 and 10 mg/kg, 14 days
Experimental: (§1) MIV-701 besylate salt was administered once daily for 14 days to 4 healthy cats at three increasing doses: 2 mg/kg, 10 mg/kg and 50 mg/kg.
(§2) The three doses were consecutively administered for 14 days with a >5-day washout period between two dose levels.
(§3) Each treatment period can be resumed as follows: • J0 (T+24h): first administration, withdrawal of blood samples for pharmacokinetic and plasma CTX-1 assessment (pre-dose and 0.5h, 1h, 2h, 4h, 8h and 24h after first drug administration), pre-dose blood samples for hematology and clinical biochemistry (baseline values for safety assessment). • J5 ([…]) and J8: pre-dose blood samples. • J13: last administration, withdrawal of plasma samples for pharmacokinetic and plasma CTX-1 assessment (pre-dose and 0.5h, 1h, 2h, 4h, 8h and 24h after last drug administration), pre-dose sampling for hematology and clinical biochemistry (baseline values for safety assessment). • J15 to J≥19: washout period.

[2] = MIV-701/MIV-06404 plasma exposure ratio in cat; settings: for MIV-701/MIV-06404 exposure ratio: D13 (repeated); for MIV-701/MIV-06404 ratio: single oral administration (D0), exposure ratio
Experimental: as §1, §3
(§4) After centrifugation of blood samples plasma aliquots were stored at -20°C._After thawing on ice, 30 µL of plasma were transferred into 1.5 ml microtube containing 270 µL acetonitrile. Microtubes were then vigorously stirred and then centrifuged (12000 rpm, 10 min, 4°C) and the supernatant was transferred in Matrix tube for LC-MS/MS analysis.
(§5) Equipment: LC-MS/MS Acquity I Class-Wevo TQD (Waters®): - Acquity I Class ∘ Column: Waters® Acquity BEH C8, 50*2.1mm, 1.7 µm (40°C) ∘ Mobile phase: • ▪ A: Ammonium Formate 5mM, pH=3.8 • ▪ B: Ammonimuformate 5 mM in CH3CN 5% aqueous, pH=3.8 ∘ Injection volume: 1 µL ∘ Speed: 600 µL/min ∘ Gradient: […]
(§6) - Xevo TQD • ∘ Source temperature: 150°C • ∘ Desolvatation temperature: 600°C • ∘ Cone gaz speed: 50L/h • ∘ Desolvatation gaz speed: 1200L/h - Analytes MS characteristics

[3] = Plasma pharmacokinetic of MIV-701 after single and repeated oral administration of MIV-701 besylate salt in healthy cats; settings: for Cmax at 312 h / Tmax at 312 h / AUC(0-inf) at 312 h / AUC(0-t) at 312 h / half-life at 312 h / Cmax / Tmax at 0 h / AUC(0-inf) / AUC(0-t) / half-life: cat; for AUC(0-inf) at 312 h / AUC(0-inf): read-out: AUC(0-infini) (converted); for AUC(0-t) at 312 h / AUC(0-t): read-out: AUC(0-tfinal) (converted); for half-life at 312 h / half-life: read-out: T1/2 elimination (converted)
Experimental: as §1, §2, §3, §4
A calibration curve (9 points, 3 to 30 000 nM) was obtained by spiking plasma samples from naive cats with appropriate quantities of Compound I.
as §5, §6
Terminal elimination half-life (t1/2) was calculated according to the following formula: T1/2 elimination = ln(2)/kel [formula] kel= slope of ln(C)=f(temps) calculated on the last points of the curves (elimination phase)/ MIV-701 exposure (Area Under the Curve; AUCt) was calculated according to trapezoidal method accroding to the following formula: AUCt−>inf = [C]t /kel [formula]

[4] = Safety of repeated oral administration in healthy cats
Experimental: as §1, §2, §3

[5] = plasma MIV-701, oral 2 mg/kg once daily, Day 13 (repeated)
[6] = plasma MIV-701, oral 2 mg/kg, Day 0 (single)
[7] = plasma MIV-701, oral 10 mg/kg once daily, Day 13 (repeated)
[8] = plasma MIV-701, oral 10 mg/kg, Day 0 (single)
[9] = plasma MIV-701, oral 50 mg/kg, Day 0 (single)

SMILES: CC(C)C[C@H](NC(=O)c1ccc(-c2csc(N3CCN(C)CC3)n2)cc1)C(=O)N1C[C@H](F)[C@H]2OCC(O)(O)[C@H]21 [MIV-701 besylate salt, N-[(S)-1-((3aS,6S,6aS)-6-Fluoro-S-oxo-hexahydro-furo[3,2-b]pyrrole-4-carbony)-3-methyl-butyl]-4-[2-(4-methyl-piperazin-1-yl)-thiazol-4-yl]-benzamide benzenesulphonate]
- inhibition of plasma CTX-1 vs baseline ([1]; 10 mg/kg once a day, end of the 14 days treatment period): 60%
- time of CTX-1 inhibition peak after administration ([1]; D0, three doses tested): 4 h
- pre-dose plasma CTX-1 during repeated administration [1]: rapid drop
- pre-dose plasma CTX-1 during repeated administration ([1]; listed as MIV-701-besylate): sustained inhibition
- CTX-1 plasma concentration 24 hours after administration ([1]; single dose, all doses tested): did not go back to pre-dose concentration
- reduction of plasma CTX-1 ([1]; single oral administration (D0) at 2, 10 and 50 mg/kg): comparable reduction of plasma CTX-1
- MIV-701/MIV-06404 exposure ratio ([2]; 2 mg/kg): 5.0
- MIV-701/MIV-06404 exposure ratio ([2]; 10 mg/kg): 3.4
- MIV-701/MIV-06404 ratio ([2]; 2 mg/kg): 6.9
- MIV-701/MIV-06404 ratio ([2]; 10 mg/kg): 6.2
- MIV-701/MIV-06404 ratio ([2]; 50 mg/kg): 3.9
- plasma exposure (AUC) at D13 higher than AUC at D0 ([3]; 2 mg/kg): 1.2 folds
- plasma exposure (AUC) at D13 higher than AUC at D0 ([3]; 10 mg/kg): 1.9 folds
- Cmax at 312 h [3, 5]: 141 nM
- Tmax at 312 h [3, 5]: 2 h
- AUC(0-inf) at 312 h [3, 5]: 0.984 µM·h
- AUC(0-t) at 312 h [3, 5]: 0.972 µM·h
- half-life at 312 h [3, 5]: 3.9 h
- Cmax [3, 6]: 122 nM
- Tmax at 0 h [3, 6]: 2 h
- AUC(0-inf) [3, 6]: 0.811 µM·h
- AUC(0-t) [3, 6]: 0.808 µM·h
- half-life [3, 6]: 2.9 h
- Cmax at 312 h [3, 7]: 663 nM
- Tmax at 312 h [3, 7]: 0.5 h
- AUC(0-inf) at 312 h [3, 7]: 5.3 µM·h
- AUC(0-t) at 312 h [3, 7]: 5.07 µM·h
- half-life at 312 h [3, 7]: 5.7 h
- Cmax [3, 8]: 249 nM
- Tmax at 0 h [3, 8]: 2 h
- AUC(0-inf) [3, 8]: 2.85 µM·h
- AUC(0-t) [3, 8]: 2.78 µM·h
- half-life [3, 8]: 4.6 h
- Cmax [3, 9]: 3890 nM
- Tmax at 0 h [3, 9]: 2 h
- AUC(0-inf) [3, 9]: 34.8 µM·h
- AUC(0-t) [3, 9]: 33.6 µM·h
- half-life [3, 9]: 4.9 h
- Kel (4-24h) [3, 5]: -0.179 h⁻¹
- Kel (4-24h) [3, 6]: -0.236 h⁻¹
- Kel (4-24h) [3, 7]: -0.122 h⁻¹
- Kel (4-24h) [3, 8]: -0.152 h⁻¹
- Kel (4-24h) [3, 9]: -0.142 h⁻¹
- adverse or irreversible effect ([4]; oral 2 mg/kg/day and 10 mg/kg/day during 14 days): did not induce any adverse or irreversible effect
- adverse signs ([4]; oral 50 mg/kg/day during 4 days, led to treatment withdrawal, reversible): induced some digestive and behavioral degradations

— patent EP4613273A1, “TREATMENT OF BONE LOSS” (priority 2024, dated 2025)
